What was measured:
[1] = identical field strength (7T), commercial Gd(III) agent; cited from earlier work
[2] = EDTA reference value in competition experiments; cited from earlier work
[3] = In vivo MR imaging (biodistribution) after i.v. administration of Mn complexes; parameters: species or system mouse
Experimental: FIG. 4A. In vivo MRI in control mouse after i.v. administration of MnNTA.
FIG. 4B. MRI after i.v. administration of Mn:ETID (50 μL of 40 mM solution).
In vivo behavior was tested of two relatively strong (log K1>7) ligands for Mn(II) chelation, nitrilotriacetic acid (NTA), closely related to EDTA, and […] (3,4-DBA).
This in vivo behavior was also what is observed for the FDA-approved agent Teslascan. In the past, development of paramagnetic Mn complexes for MRI has been challenged by the inherent coordination lability of Mn(II) (e.g., Irving Williams series), resulting in the propensity of Mn(II) to be trans-metallated by other endogenous metals such as zinc in vivo. The only FDA-approved approved Mn(II) PM complex for MRI was Teslascan, which has now been discontinued. […] Contrast enhancement was therefore based on free Mn and confined to the liver.
Enhancement of the bowel is also noted but more variable, believed to represent elimination of the coordination complex from the gallbladder into the small intestine. […]
Finally, it is worth noting that free Mn is believed to be toxic neurologically if allowed to accumulate to high concentrations in certain neuronal populations. […] Since Mn accumulation in tissues is readily visualized with MRI, however, selective delivery of Mn-containing agents is easily monitored. […]

4T1 tumor = assay: Dynamic contrast enhancement of 4T1 tumor after i.v. administration; assay type: in vivo; conditions: pilot data, versus paramagnetic coordination complex alone
Experimental: FIG. 5. Dynamic contrast enhancement of 4T1 tumor after i.v. admin of 1-hydroxybisphosphonate:Mn complex linked to HSP90 inhibitor as in Scheme 1C, 25 mg/kg. Graph on left depicts relative change in T1 enhancement in tumors after labeled drug (n=5) and after Mn:ETID complex alone (n=6).
Several synthetic strategies were used for labeling small molecule drugs either directly or via polyethyleneglycol (PEG) linkers. Two lead complexes, the first with a medronate analogue (Scheme 1B) via the amine-terminated PEG linker, and the second an etidronate analogue coupled through the COOH-terminated PEG linker (Scheme 1C), have now been synthesized, characterized and studied preliminarily in vivo.

[4] = FDA-approved Mn(II) agent, prior experience; cited from earlier work

## O=C([O-])CN1CCN(CC(=O)[O-])CCN([C@H](CO)[C@H](O)CO)CCN(CC(=O)[O-])CC1.[Gd+3] (racemic) [gadobutrol]
[1]
  r1 (relaxivity stated as equivalent): 5.2 mM⁻¹ s⁻¹

## O=C(O)CN(CCN(CC(=O)O)CC(=O)O)CC(=O)O [EDTA]
[2]
  log K1: 26

## O=C(O)CN(CC(=O)O)CC(=O)O [NTA, nitrilotriacetic acid]
[3]; after i.v. administration, indicates free Mn released into blood pool
  cardiac enhancement: cardiac enhancement was also seen
[3]; mouse, in vivo, iv
  biodistribution on in vivo MR imaging: consistent with release of free Mn and hepatocellular uptake

## Cc1nn(-c2ccc(C(N)=O)c(NCCCOCCOCCOCCOCCOCCCNC(=O)CC(P(=O)(O)O)P(=O)(O)O)c2)c2c1C(=O)CC(C)(C)C2 [Scheme 1B]
4T1 tumor
  enhancement in 4T1 tumors: progressive accumulation of enhancement in 4T1 tumors that is greater than what is seen for the paramagnetic coordination complex alone

## Cc1nn(-c2ccc(C(N)=O)c(NCCCOCCOCCOCCOCCOCCCC(=O)NCCCC(O)(P(=O)(O)O)P(=O)(O)O)c2)c2c1C(=O)CC(C)(C)C2 [Scheme 1C]
4T1 tumor
  enhancement in 4T1 tumors: progressive accumulation of enhancement in 4T1 tumors that is greater than what is seen for the paramagnetic coordination complex alone

## Cc1ncc(COP(=O)([O-])[O-])c(CN(CCN(CC(=O)[O-])Cc2c(COP(=O)([O-])[O-])cnc(C)c2[O-])CC(=O)[O-])c1[O-].[H+].[H+].[H+].[Mn+2].[Na+].[Na+].[Na+] [Teslascan]
[4]
  in vivo distribution behaviour: immediately distributed to the liver, releasing free Mn
